ChEMBL document CHEMBL3608287, “Potential Treatment for the Respiratory Syncytial Virus Infections (HRSV)” (ACS Med Chem Lett, 2015)

Key:
[1] = Cytotoxicity against human Hep2 cells; type: cell-based, HEp-2
[2] = Cytotoxicity against human MT4 cells; type: cell-based
Human orthopneumovirus = assay: Antiviral activity against Human respiratory syncytial virus; type: functional, organism-based
[3] = Inhibition of Human respiratory syncytial virus RNP

| SMILES | EC50 (Human orthopneumovirus) | IC50 [3] | CC50 [1] | CC50 [2] |
| --- | --- | --- | --- | --- |
| C#C[C@]1(CO)O[C@@H](c2ccc3c(N)ncnn23)[C@H](F)[C@@H]1O | 9.6 µM |  | > 100 µM | > 106 µM |
| CC(C)(C)C(=O)SCCOP(=O)(OCCSC(=O)C(C)(C)C)OC[C@@]1(C#N)O[C@@H](c2ccc3c(N)ncnn23)[C@H](O)[C@@H]1O | 1 µM |  | 39 µM | 7.3 µM |
| [N-]=[N+]=N[C@]1(CO)O[C@@H](c2ccc3c(N)nc(F)nn23)[C@H](F)[C@@H]1O | 0.57 µM |  | > 100 µM | 32 µM |
| N#C[C@]1(CO)O[C@@H](c2cc(F)c3c(N)ncnn23)[C@H](O)[C@@H]1O | 9.2 µM |  | > 100 µM | > 93 µM |

Further lines, with some results ahead:

| EC50 (Human orthopneumovirus) | IC50 [3] | SMILES | CC50 [1] | CC50 [2] |
| --- | --- | --- | --- | --- |
| 7.3 µM |  | N#C[C@]1(CO)O[C@@H](c2ccc3c(N)ncnn23)[C@H](O)[C@@H]1O | > 50 µM | > 53 µM |
|  | 1 µM | C#C[C@]1(COP(=O)(O)OP(=O)(O)OP(=O)(O)O)O[C@@H](c2ccc3c(N)ncnn23)[C@H](F)[C@@H]1O |  |  |
